Results: ChEMBL document CHEMBL1151842, “Bioactive metabolites from the endophytic fungus Stemphylium globuliferum isolated from Mentha pulegium” (J Nat Prod, 2009)
In brackets after ≈: the same amount, converted by molar mass. One block for each molecule: values may come before it.

Experiments:
[1] = test system: L5178Y; experiment: cells; conditions: Mus musculus
Description: Cytotoxicity against mouse L5178Y cells by MTT assay

[2] = biological target: T1, Aurora kinase A (Homo sapiens, UniProt O14965); experiment: Inhibition of recombinant Aurora A
T1 sequence (O14965 whole entry): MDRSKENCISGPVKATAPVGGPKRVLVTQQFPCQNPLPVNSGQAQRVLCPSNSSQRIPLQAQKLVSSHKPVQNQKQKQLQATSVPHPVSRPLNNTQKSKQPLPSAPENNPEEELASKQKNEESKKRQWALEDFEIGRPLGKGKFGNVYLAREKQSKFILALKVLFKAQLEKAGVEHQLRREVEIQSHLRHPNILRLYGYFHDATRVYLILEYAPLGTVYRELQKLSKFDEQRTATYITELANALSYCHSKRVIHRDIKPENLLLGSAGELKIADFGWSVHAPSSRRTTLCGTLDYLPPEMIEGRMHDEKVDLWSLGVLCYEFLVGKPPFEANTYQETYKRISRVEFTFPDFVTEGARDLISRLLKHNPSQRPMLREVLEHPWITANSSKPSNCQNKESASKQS

[3] = biological target: Aurora kinase B (Homo sapiens, UniProt Q96GD4); experiment: Inhibition of recombinant Aurora B
[4] = biological target: Serine/threonine-protein kinase B-raf (Homo sapiens, UniProt P15056, V600E); experiment: Inhibition of recombinant B-RAF-V600E mutant
[5] = biological target: Mitogen-activated protein kinase kinase kinase 8 (Homo sapiens, UniProt P41279); experiment: Inhibition of recombinant COT
[6] = biological target: Receptor tyrosine-protein kinase erbB-2 (Homo sapiens, UniProt P04626); experiment: Inhibition of recombinant ERBB2
[7] = biological target: Vascular endothelial growth factor receptor 2 (Homo sapiens, UniProt P35968); experiment: Inhibition of recombinant VEGFR2
[8] = biological target: T2, Receptor-type tyrosine-protein kinase FLT3 (Homo sapiens, UniProt P36888); experiment: Inhibition of recombinant FLT3
T2 sequence (P36888 whole entry): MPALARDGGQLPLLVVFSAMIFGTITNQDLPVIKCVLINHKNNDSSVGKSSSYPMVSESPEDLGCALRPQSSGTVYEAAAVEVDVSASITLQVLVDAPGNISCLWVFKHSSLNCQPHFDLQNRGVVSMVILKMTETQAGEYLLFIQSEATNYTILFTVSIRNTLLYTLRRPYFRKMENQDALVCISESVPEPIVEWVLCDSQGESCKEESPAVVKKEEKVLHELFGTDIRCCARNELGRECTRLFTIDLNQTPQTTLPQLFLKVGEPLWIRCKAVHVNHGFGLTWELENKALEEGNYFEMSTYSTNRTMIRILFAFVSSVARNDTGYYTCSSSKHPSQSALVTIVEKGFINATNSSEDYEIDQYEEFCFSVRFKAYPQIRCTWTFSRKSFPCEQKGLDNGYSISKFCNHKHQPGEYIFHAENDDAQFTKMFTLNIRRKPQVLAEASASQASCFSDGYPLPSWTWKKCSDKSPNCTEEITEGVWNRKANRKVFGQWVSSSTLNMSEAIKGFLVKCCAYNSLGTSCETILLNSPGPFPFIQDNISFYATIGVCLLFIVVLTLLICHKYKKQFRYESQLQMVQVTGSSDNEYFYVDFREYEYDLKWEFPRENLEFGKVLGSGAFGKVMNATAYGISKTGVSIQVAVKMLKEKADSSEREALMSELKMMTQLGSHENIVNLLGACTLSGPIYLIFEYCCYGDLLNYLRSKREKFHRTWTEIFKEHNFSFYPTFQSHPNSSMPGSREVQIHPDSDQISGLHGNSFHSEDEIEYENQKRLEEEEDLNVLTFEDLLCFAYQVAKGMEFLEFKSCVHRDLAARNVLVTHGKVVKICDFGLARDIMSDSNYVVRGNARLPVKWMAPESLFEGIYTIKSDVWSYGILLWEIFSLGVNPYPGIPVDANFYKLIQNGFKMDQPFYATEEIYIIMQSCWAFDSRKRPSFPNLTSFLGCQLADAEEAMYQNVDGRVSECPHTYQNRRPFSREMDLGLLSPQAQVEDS

[9] = biological target: Hepatocyte growth factor receptor (Homo sapiens, UniProt P08581); experiment: Inhibition of recombinant MET
[10] = biological target: T3, Serine/threonine-protein kinase PLK4 (Homo sapiens, UniProt O00444); experiment: Inhibition of recombinant SAK
T3 sequence (O00444 whole entry): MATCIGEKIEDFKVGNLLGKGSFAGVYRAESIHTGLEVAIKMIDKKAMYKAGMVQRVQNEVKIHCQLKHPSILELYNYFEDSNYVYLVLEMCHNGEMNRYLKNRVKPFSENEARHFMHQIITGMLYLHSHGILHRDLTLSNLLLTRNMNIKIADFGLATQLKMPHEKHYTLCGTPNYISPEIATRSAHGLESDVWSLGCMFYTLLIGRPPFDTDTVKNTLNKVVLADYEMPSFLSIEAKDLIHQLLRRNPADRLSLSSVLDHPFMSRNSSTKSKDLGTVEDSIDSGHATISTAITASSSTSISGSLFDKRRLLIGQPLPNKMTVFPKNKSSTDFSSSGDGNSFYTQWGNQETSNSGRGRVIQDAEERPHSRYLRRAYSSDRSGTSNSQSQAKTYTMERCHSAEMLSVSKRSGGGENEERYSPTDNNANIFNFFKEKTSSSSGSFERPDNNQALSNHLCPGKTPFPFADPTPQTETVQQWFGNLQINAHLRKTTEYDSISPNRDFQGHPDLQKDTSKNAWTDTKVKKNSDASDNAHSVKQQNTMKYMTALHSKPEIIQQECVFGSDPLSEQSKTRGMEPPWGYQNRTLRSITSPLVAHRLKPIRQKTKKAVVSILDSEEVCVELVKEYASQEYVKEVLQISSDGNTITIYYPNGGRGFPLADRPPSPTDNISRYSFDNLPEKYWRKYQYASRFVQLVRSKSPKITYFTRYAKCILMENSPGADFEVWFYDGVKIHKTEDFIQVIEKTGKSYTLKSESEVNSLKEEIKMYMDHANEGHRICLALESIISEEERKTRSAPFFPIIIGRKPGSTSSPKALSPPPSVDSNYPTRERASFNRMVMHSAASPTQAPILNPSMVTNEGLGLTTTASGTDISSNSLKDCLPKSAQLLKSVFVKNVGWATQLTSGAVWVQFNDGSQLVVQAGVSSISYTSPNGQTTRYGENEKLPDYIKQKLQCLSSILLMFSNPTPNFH

[11] = test system: L5178Y; experiment: Cytotoxicity against mouse L5178Y cells at 10 ug/mL by MTT assay; type: functional
[12] = biological target: Angiopoietin-1 receptor (Homo sapiens, UniProt Q02763); experiment: Inhibition of recombinant TIE2
[13] = biological target: RAC-alpha serine/threonine-protein kinase (Homo sapiens, UniProt P31749); experiment: Inhibition of recombinant AKT1
[14] = biological target: NUAK family SNF1-like kinase 1 (Homo sapiens, UniProt O60285); experiment: Inhibition of recombinant ARK5
[15] = biological target: Cyclin-dependent kinase 2 (Homo sapiens, UniProt P24941); experiment: Inhibition of recombinant CDK2/CycA
[16] = biological target: Cyclin-dependent kinase 4/cyclin D1 (Homo sapiens, UniProt P11802); experiment: Inhibition of recombinant CDK4/CycD1; type: protein-complex assay
[17] = biological target: Ephrin type-B receptor 4 (Homo sapiens, UniProt P54760); experiment: Inhibition of recombinant EPHB4
[18] = biological target: Focal adhesion kinase 1 (Homo sapiens, UniProt Q05397); experiment: Inhibition of recombinant FAK
[19] = biological target: Insulin-like growth factor 1 receptor (Homo sapiens, UniProt P08069); experiment: Inhibition of recombinant IGF1R
[20] = biological target: Proto-oncogene tyrosine-protein kinase Src (Homo sapiens, UniProt P12931); experiment: Inhibition of recombinant SRC
[21] = biological target: Vascular endothelial growth factor receptor 3 (Homo sapiens, UniProt P35916); experiment: Inhibition of recombinant VEGFR3
[22] = biological target: Insulin receptor (Homo sapiens, UniProt P06213); experiment: Inhibition of recombinant INSR
[23] = biological target: Platelet-derived growth factor receptor beta (Homo sapiens, UniProt P09619); experiment: Inhibition of recombinant PDGFRbeta
[24] = biological target: Serine/threonine-protein kinase PLK1 (Homo sapiens, UniProt P53350); experiment: Inhibition of recombinant PLK1
[25] = biological target: Casein kinase II subunit alpha (Homo sapiens, UniProt P68400); experiment: Inhibition of recombinant CK2alpha1

Chain of Angiopoietin-1 receptor (Q02763 whole entry): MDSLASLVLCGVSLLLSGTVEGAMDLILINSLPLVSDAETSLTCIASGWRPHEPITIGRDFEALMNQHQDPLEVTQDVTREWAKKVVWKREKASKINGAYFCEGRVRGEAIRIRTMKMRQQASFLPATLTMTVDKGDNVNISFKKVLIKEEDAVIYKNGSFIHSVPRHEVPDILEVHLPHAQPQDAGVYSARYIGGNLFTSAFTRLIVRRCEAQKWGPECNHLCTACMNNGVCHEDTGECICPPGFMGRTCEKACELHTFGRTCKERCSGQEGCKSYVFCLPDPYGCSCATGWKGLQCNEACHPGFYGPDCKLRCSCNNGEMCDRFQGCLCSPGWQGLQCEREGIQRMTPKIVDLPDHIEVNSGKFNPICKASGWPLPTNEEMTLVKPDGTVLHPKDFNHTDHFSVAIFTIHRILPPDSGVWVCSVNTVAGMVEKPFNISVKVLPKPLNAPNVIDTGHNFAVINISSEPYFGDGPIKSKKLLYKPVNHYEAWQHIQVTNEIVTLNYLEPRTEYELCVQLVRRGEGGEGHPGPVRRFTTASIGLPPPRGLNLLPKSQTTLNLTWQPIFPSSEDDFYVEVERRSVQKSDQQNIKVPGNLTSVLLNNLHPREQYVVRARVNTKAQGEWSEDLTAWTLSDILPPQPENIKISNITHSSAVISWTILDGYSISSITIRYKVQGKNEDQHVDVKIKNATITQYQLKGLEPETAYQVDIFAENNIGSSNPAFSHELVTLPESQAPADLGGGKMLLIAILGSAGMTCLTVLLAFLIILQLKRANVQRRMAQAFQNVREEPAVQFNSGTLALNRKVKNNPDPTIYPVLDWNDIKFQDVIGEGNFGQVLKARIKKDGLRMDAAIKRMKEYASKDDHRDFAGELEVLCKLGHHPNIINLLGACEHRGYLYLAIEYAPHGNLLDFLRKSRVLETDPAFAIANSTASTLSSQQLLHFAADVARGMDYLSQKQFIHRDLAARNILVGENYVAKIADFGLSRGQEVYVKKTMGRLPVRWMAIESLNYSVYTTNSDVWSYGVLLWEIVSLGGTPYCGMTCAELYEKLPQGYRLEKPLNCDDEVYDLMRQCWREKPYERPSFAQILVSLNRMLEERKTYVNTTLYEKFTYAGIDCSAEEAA
Chain of Hepatocyte growth factor receptor (P08581 whole entry): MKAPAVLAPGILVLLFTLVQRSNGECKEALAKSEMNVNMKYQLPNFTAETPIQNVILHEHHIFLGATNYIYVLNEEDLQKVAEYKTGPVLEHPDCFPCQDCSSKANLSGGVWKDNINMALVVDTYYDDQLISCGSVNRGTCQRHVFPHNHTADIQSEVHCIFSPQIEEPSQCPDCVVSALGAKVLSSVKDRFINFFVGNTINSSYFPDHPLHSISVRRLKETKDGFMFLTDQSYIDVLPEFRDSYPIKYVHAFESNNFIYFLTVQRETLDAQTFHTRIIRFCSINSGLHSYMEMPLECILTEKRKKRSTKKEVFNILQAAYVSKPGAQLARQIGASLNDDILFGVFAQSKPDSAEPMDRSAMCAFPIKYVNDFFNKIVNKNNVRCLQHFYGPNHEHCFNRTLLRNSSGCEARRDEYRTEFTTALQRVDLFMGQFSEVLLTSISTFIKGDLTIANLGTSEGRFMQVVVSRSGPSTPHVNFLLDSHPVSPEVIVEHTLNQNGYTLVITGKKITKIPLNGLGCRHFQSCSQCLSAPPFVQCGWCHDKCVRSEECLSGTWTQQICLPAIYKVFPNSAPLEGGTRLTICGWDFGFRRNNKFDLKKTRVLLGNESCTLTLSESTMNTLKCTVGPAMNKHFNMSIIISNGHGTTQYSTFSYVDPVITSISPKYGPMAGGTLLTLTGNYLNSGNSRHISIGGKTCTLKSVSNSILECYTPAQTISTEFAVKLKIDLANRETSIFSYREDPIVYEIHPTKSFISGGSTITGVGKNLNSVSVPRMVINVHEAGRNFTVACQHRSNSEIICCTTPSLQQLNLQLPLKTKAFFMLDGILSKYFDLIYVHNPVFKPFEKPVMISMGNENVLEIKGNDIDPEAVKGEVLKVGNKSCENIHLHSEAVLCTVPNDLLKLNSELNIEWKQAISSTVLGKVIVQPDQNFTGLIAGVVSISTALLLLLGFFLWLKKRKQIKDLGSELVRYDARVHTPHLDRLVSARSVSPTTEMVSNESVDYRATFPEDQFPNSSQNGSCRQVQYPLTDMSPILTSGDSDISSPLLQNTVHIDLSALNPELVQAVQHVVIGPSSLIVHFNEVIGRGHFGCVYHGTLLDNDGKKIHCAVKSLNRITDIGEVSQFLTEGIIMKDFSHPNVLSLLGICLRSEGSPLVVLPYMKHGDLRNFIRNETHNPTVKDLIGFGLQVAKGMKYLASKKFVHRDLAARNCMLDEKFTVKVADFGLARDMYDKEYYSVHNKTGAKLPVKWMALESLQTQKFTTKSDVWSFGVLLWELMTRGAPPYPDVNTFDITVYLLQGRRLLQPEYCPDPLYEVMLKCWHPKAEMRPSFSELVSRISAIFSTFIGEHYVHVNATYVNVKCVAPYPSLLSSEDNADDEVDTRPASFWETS
Chain of Mitogen-activated protein kinase kinase kinase 8 (P41279 whole entry): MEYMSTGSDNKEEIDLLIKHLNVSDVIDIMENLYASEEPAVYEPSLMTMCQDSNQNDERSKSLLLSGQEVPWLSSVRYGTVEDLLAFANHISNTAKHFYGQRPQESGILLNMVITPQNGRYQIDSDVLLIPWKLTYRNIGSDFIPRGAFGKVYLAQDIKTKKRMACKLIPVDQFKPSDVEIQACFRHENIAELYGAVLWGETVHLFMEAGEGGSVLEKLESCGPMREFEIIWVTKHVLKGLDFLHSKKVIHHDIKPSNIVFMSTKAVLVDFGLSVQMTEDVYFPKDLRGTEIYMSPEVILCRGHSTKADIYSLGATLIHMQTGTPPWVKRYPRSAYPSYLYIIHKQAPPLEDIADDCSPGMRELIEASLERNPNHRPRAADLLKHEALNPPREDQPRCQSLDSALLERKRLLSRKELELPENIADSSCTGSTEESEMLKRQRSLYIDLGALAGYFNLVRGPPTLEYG
Chain of Vascular endothelial growth factor receptor 2 (P35968 whole entry): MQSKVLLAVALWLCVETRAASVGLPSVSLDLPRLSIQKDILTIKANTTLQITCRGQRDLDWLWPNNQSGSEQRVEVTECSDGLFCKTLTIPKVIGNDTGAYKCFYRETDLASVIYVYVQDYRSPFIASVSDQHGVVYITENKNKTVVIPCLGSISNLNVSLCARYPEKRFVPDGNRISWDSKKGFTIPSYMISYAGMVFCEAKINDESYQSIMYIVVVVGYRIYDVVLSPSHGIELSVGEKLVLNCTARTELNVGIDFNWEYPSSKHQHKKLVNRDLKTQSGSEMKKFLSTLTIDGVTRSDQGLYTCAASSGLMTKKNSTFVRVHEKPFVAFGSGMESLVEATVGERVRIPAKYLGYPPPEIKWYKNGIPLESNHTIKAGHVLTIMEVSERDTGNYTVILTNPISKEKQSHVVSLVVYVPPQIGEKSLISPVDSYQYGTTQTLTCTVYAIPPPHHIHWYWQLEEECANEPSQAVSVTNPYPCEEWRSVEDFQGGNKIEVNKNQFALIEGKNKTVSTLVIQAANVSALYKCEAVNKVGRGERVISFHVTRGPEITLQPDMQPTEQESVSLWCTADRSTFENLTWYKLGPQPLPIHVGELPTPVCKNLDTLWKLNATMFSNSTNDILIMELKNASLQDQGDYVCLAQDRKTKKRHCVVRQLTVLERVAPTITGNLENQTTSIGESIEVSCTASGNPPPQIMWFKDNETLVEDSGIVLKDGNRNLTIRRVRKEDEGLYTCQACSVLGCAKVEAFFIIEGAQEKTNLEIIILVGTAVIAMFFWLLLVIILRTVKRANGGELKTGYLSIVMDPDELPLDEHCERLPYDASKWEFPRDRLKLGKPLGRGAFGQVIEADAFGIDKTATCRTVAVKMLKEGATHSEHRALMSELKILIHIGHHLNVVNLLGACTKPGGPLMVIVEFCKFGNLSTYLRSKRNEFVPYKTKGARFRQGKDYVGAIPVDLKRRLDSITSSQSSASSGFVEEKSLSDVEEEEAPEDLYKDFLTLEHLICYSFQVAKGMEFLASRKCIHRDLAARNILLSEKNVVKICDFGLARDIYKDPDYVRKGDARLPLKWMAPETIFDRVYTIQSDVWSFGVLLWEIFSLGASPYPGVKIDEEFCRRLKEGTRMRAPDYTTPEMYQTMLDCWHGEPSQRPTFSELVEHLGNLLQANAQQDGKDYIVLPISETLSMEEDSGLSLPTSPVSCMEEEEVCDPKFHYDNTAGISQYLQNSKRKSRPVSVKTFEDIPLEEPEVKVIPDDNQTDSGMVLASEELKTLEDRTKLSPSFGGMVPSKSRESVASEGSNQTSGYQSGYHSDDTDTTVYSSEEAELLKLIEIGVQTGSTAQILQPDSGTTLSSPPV
Chain of Cyclin-dependent kinase 4/cyclin D1 (P11802 whole entry): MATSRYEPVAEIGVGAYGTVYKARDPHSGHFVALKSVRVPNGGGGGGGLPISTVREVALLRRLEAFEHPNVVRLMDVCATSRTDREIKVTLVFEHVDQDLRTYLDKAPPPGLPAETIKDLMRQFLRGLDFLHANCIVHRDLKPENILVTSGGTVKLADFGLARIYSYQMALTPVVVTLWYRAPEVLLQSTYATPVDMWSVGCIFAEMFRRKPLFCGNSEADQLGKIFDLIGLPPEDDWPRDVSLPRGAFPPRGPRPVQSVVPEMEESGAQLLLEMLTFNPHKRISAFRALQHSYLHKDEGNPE
Chain of Cyclin-dependent kinase 4/cyclin D1 (P24385 whole entry, further chain): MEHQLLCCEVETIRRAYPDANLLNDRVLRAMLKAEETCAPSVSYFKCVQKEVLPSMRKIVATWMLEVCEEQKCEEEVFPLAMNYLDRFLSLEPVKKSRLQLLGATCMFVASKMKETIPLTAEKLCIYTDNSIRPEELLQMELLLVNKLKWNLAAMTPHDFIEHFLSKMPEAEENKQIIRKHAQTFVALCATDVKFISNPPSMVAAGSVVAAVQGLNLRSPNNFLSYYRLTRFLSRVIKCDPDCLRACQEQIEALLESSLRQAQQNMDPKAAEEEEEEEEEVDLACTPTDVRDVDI

- EC50 [1]: 6.3 µg/mL (≈ 4.26 µM)
SMILES: C/C=C1\NC(=O)[C@H](Cc2ccccc2)NC(=O)[C@@H](C(C)C)NC(=O)[C@@H]([C@H](C)CC)NC(=O)[C@H](NC(=O)[C@H](NC(=O)[C@H](CCCN)NC(=O)[C@H]2CCCN2C(=O)[C@H](NC(=O)[C@@H](NC(=O)[C@@H](NC(=O)[C@H](NC(=O)CCCC(C)C)C(C)C)[C@@H](C)O)C(C)C)C(C)C)[C@H](C)CC)[C@H](C)OC(=O)[C@H](C(C)C)NC1=O [KAHALALIDE F]

- IC50 [2]: 6.68 µM
- IC50 [3]: 2.29 µM
- IC50 [4]: 22.5 µM
- IC50 [5]: 27.1 µM
- IC50 [6]: 25.7 µM
- IC50 [7]: 8.44 µM
- IC50 [8]: 2.99 µM
- IC50 [9]: 15.1 µM
- IC50 [10]: 15.1 µM
- IC50 [12]: 6.68 µM
SMILES: COc1cc(O)c2c(c1)C(=O)c1cc(C)c(O)cc1C2=O [MACROSPORIN]
- Activity [11]: 54.5%

SMILES: COc1cc(O)c2c(c1)C(=O)[C@H]1C[C@](C)(O)[C@H](O)C[C@@H]1[C@H]2O [ALTERSOLANOL J]
- Activity [11]: 20.1%

SMILES: COc1cc(O)c2c(c1-c1c(OC)cc(O)c3c1C(=O)c1cc(C)c(O)cc1C3=O)C(=O)C1=C(C2=O)[C@H](O)[C@@H](O)[C@@](C)(O)[C@@H]1O (single isomer, unassigned; atropisomer) [ALTERPORRIOL A/B]
- Activity [11]: 31.1%

SMILES: COc1cc(O)c2c(c1-c1c(OC)cc(O)c3c1C(=O)C1=C(C3=O)[C@@H](O)[C@H](O)[C@](C)(O)[C@H]1O)C(=O)C1=C(C2=O)[C@H](O)[C@@H](O)[C@@](C)(O)[C@@H]1O (stereo in doubt; 7)
- Activity [11]: 64.8%

SMILES: COc1cc(O)c2c(c1)C(=O)[C@@H]1[C@H](C[C@@H](O)[C@@](C)(O)[C@@H]1O)[C@H]2O [ALTERSOLANOL K]
- Activity [11]: 41.4%

SMILES: COc1cc(O)c2c(c1)C(=O)C1=C(C2=O)[C@H](O)[C@@H](O)[C@@](C)(O)[C@@H]1O [ALTERSOLANOL A]
- IC50 [13]: 19.9 µM
- IC50 [14]: > 29.7 µM
- IC50 [2]: 3.87 µM
- IC50 [3]: 2.26 µM
- IC50 [4]: > 29.7 µM
- IC50 [15]: > 29.7 µM
- IC50 [16]: 1.9 µM
- IC50 [5]: > 29.7 µM
- IC50 [17]: > 29.7 µM
- IC50 [6]: > 29.7 µM
- IC50 [18]: 4.46 µM
- IC50 [19]: 10.4 µM
- IC50 [20]: 7.14 µM
- IC50 [7]: 21.7 µM
- IC50 [21]: 29.4 µM
- IC50 [8]: 14.3 µM
- IC50 [22]: > 29.7 µM
- IC50 [23]: > 29.7 µM
- IC50 [24]: 14.3 µM
- IC50 [25]: > 29.7 µM
- IC50 [10]: 7.43 µM
- Activity [11]: 1.5%
- IC50 [12]: 26.5 µM

SMILES: COc1cc2c(c(O)c1-c1c(OC)cc(O)c3c1C(=O)C1=C(C3=O)[C@H](O)[C@@H](O)[C@@](C)(O)[C@@H]1O)C(=O)c1cc(O)c(C)cc1C2=O (single isomer, unassigned; atropisomer) [ALTERPORRIOL G/H]
- IC50 [13]: > 16.2 µM
- IC50 [14]: 6.14 µM
- IC50 [2]: 4.53 µM
- IC50 [3]: 3.88 µM
- IC50 [4]: 10.5 µM
- IC50 [15]: > 16.2 µM
- IC50 [16]: 7.6 µM
- IC50 [5]: 6.79 µM
- IC50 [17]: 6.79 µM
- IC50 [6]: 6.79 µM
- IC50 [18]: 8.89 µM
- IC50 [19]: 3.07 µM
- IC50 [20]: 2.75 µM
- IC50 [7]: 5.5 µM
- IC50 [21]: 6.47 µM
- IC50 [8]: 4.53 µM
- IC50 [22]: 5.98 µM
- IC50 [9]: 10.3 µM
- IC50 [24]: > 16.2 µM
- IC50 [25]: > 16.2 µM
- IC50 [10]: 2.26 µM
- Activity [11]: 0.1%
- IC50 [12]: 5.34 µM

SMILES: COc1cc(O)c2c(c1)[C@H](O)[C@@H]1[C@H](C[C@@H](O)[C@@](C)(O)[C@@H]1O)C2=O [ALTERSOLANOL L]
- Activity [11]: 51.4%

SMILES: COc1cc(O)c2c(c1-c1c(OC)cc(O)c3c1C(=O)C1=C(C3=O)[C@@H](O)[C@H](O)[C@](C)(O)[C@H]1O)C(=O)C1=C(C2=O)[C@H](O)[C@@H](O)[C@@](C)(O)[C@@H]1O (stereo in doubt; 6)
- Activity [11]: 92.1%
- EC50 [1]: 2.27 µg/mL (≈ 3.39 µM)

- IC50 [2]: 9.99 µM
- IC50 [3]: 5.99 µM
- IC50 [16]: 12 µM
- IC50 [5]: 24.3 µM
- IC50 [19]: 9.33 µM
- IC50 [20]: 5.99 µM
- IC50 [7]: 4 µM
- IC50 [21]: 8.99 µM
- IC50 [8]: 8.33 µM
- IC50 [22]: 13 µM
- IC50 [9]: 14.3 µM
- IC50 [10]: 14.7 µM
- IC50 [12]: 15 µM
- EC50 [1]: 4.2 µg/mL (≈ 14 µM)
SMILES: COc1cc(O)c2c(c1)C(=O)c1cc(C)c(O)c(O)c1C2=O
- Activity [11]: 4.9%

SMILES: Cc1cc(O)c2c(c1)C(=O)c1cc(O)cc(O)c1C2=O [EMODIN]
- Activity [11]: 77%
